# From US20250152613A1, “COMPOSITIONS AND METHODS FOR COVID-19 TREATMENT” (101 THERAPEUTICS LTD., priority 2022, published 2025)
# Legend:
# [1] = tested on: bleomycin-induced PF mice model; assay: bleomycin-induced pulmonary fibrosis (PF) mice model; assay type: in vivo, C57BL/6 mice
# From the text: Post COVID-19 pulmonary fibrosis (PF) is defined as the presence of persistent and different fibrotic tomographic changes, often combined with impairment in pulmonary function tests. The pathogenesis of post-COVID-19 PF is partially known and likely multifactorial. Excessive production of reactive oxygen species and non-protective mechanical ventilation are potential triggers for post-COVID-19 PF. To explore the beneficial effect of compound 1 in pulmonary fibrosis, a bleomycin-induced PF mice model was utilized. Bleomycin is known for its ability to induce lung injury resulting in an acute inflammatory response, and the inflammatory phase is followed by fibrotic changes. In this model, direct administration of bleomycin to the lungs decreases survival of treated mice, due to vast pulmonary damage. The study was performed in 5 treatment groups of C57BL/6 mice (n=10-12 per group) and included early or late treatment with compound 1 (1 mg/mouse), early treatment with dexamethasone (DEX) in an amount of 0.45 mg/mouse, vehicle, and naïve control groups. Early treatment was initiated on day 1, on the same day as bleomycin administration. Late treatment was initiated on day 14. The test items were injected in the vehicle, dexamethasone and Compound 1 early treatment groups, on days 1, 2, 3, 7, 14, 21 and 28. In the late treatment group, Compound 1 was administered on days 14, 15, 16, 21, 28 and 31. The test items were injected intravenously through the tail vein after pulmonary fibrosis model induction (bleomycin was induced by intratracheal administration of bleomycin (3.5 U/kg)). Animals were monitored for morbidity, mortality, body weight, and clinical signs. Selected clinical signs (i.e., physical appearance, activity, ability to respond to external stimulus, eyes, and respiration quality) were scored to provide a clinical score. Cytokine levels in BALF (Day 33) and serum (Days 17 & 32) were determined.
# [2] = according to the literature; cited from earlier work
# COVID-19 patients = conditions: diabetics; RECOVERY trial (Rayman et al. 2021); cited from earlier work
# [3] = tested on: moderate COVID-19 patients; assay: Phase II/Phase III study of Compound 1 Vs Dexamethasone for moderate COVID-19 with Standard of Care; assay type: in vivo, human; conditions: expected
# Protocol: A prospective, randomized, multicenter, parallel group, double-blind, adaptive Phase II/Phase III study to evaluate safety and efficacy of Compound 1 Vs Dexamethasone for moderate COVID-19 disease along with Standard of Care is performed. The total duration of treatment administration for all patients is 3 days. The endpoints of the study are to evaluate efficacy of Compound 1 versus dexamethasone in moderate COVID-19 patients.
# Compound 1 is contained in vials, each vial containing 20 mg of Compound 1 to be reconstituted in saline (0.9% NaCl) for bolus intravenous (IV) injection of 5 ml of solution.
# The study is designed to determine rate of treatment-emergent adverse events (AE) and serious adverse events (SAE) including changes in clinical condition, vital signs and laboratory parameters.
# Other endpoints of the study include: lowering mortality 28 or 60 days from administration; lowering rate of Intensive care units (ICU) admission; lowering mechanical ventilation or vasopressor therapy (28 days follow-up); improved clinical recovery rate [Time Frame: Day 10]-Proportion of patients who recovered within 10 days for which recovery is defined when the patient improves by 2 points in 11-point ordinal scale; an improvement in temperature, heart rate and oxygen saturation on days 1, 2, 4 and 7; decrease in viral load relative to admission levels according to RT-PCR from nasopharyngeal swab on days 3, 5 and 10; changes in levels of CRP, ferritin and CBC with differential; change in cytokine profile and lymphocyte sub-populations; and measurement of ACTH and morning cortisol levels.
# Approximately 318 eligible patients are randomized in a 1:1 ratio to one of 2 treatment groups. Group 1: Compound 1, 20 mg per day+Standard of care. Group 2: Dexamethasone 6 mg+Standard of care.
# Total expected study duration is approximately 60 days consisting of: a screening period: 7 days (Day-7 to Day 1) prior to randomization. Treatment period: Day 1 to Day 3. End of treatment assessment: Day 3 (for patients receiving Compound 1) and Day X (for Dexamethasone arm, based on investigator' discretion). […]
# [4] = early treatment from day 1, i.v., compound 1 1 mg/mouse, DEX 0.45 mg/mouse, day 33, mean±standard deviation
# [5] = late treatment from day 14, i.v., 1 mg/mouse, day 33, mean±standard deviation
# [6] = late treatment with Compound 1, day 33
# [7] = Compound 1 20 mg per day i.v. for 3 days + Standard of care vs Dexamethasone 6 mg
# [8] = 10-30 mg i.v., single and 3 day repeated
# [9] = out of 23 possibly or probably related AEs
smiles,measurement,setting,value
"C[C@@H]1C[C@H]2[C@@H]3CCC4=CC(=O)C=C[C@]4(C)[C@@]3(F)[C@@H](O)C[C@]2(C)[C@@]1(O)C(=O)CO [DEX, dexamethasone, reference compound]",% Fibrosis - Digital morphometry,"[1]; mouse, in vivo, iv",6 ± 1.41%
same,Fibrosis score (MT),"[1]; mouse, in vivo, iv",2.25 ± 0.5
same,Pathological score (H&E),"[1]; mouse, in vivo, iv",2.25 ± 0.5
same,most frequently reported adverse effect,[2],insomnia
same,blood glucose levels,COVID-19 patients,significantly elevated
"C[C@@H]1C[C@H]2[C@@H]3CCC4=C/C(=N/OCCCO[C@H]5O[C@H](CO)[C@@H](O)[C@H](O)[C@@H]5O)C=C[C@]4(C)[C@@]3(F)[C@@H](O)C[C@]2(C)[C@@]1(O)C(=O)CO [Compound 1, 1-((8S,9R,10S,11S,13S,14S,16R,17R,E)-9-fluoro-11,17-dihydroxy-10,13,16-trimethyl-3-((3-(((2S,3S,4S,5S,6R)-3,4,5-trihydroxy-6-(hydroxymethyl)tetrahydro-2H-pyran-2-yl)oxy)propoxy)imino)-6,7,8,9,10,11,12,13,14,15,16,17-dodecahydro-3H-cyclopenta[a]phenanthren-17-yl)-2-hydroxyethan-1-one]",% Fibrosis - Digital morphometry,[1]; [4],8.25 ± 1.26%
same,Fibrosis score (MT),[1]; [4],2.25 ± 0.5
same,Pathological score (H&E),[1]; [4],2.5 ± 0.58
same,% Fibrosis - Digital morphometry,[1]; [5],5.2 ± 1.1%
same,Fibrosis score (MT),[1]; [5],2 ± 0.7
same,Pathological score (H&E),[1]; [5],2 ± 0.7
same,mortality rate (FIG. 1),"[1]; late treatment from day 14, compared with DEX and Compound 1 early groups, similar to naïve",lower mortality rate
same,overall effect on mortality and disease progression vs early treatment with DEX or Compound 1,[1]; late treatment with Compound 1,more profound effect
same,lung fibrosis by histopathological evaluation vs. vehicle control,[1]; [6],reduction in lung fibrosis
same,pathological and fibrosis scores and percentage of lung fibrosis compared to DEX treatment,[1]; [6],slightly lower
same,hyperglycemia relative to the dexamethasone group,[3]; [7],lower
same,recovery from moderate COVID-19 relative to the dexamethasone group,[3]; [7],enhanced
same,mortality,[3]; Compound 1 20 mg per day i.v. for 3 days + Standard of care,lower mortality
same,correlation between dose escalation and AEs frequency or severity,"healthy volunteers; 10, 20, 30 mg i.v.",no correlation
same,AE reported after exposure to Investigational Product,healthy volunteers; [8],29
same,AEs possibly related to the IP,healthy volunteers; [8],13
same,AEs probably related to the IP,healthy volunteers; [8],10
same,Dose-Limiting Toxicities (DLTs),healthy volunteers; [8],No DLTs
same,Serious Adverse Events (SAEs) or severe AEs,healthy volunteers; [8],No Serious Adverse Events (SAEs) or severe AEs
same,cases of hyperglycemia,healthy volunteers; [8],single case
same,"possibly or probably related AEs, total",healthy volunteers; [8],23
same,post exposure AEs assessed as not related,healthy volunteers; [8],6
same,total Adverse Events (AE) reported during the study,"healthy volunteers; 15 healthy participants, 10, 20, 30 mg single i.v. doses and 30 mg once a day for 3 days, includes 4 before exposure",33
same,blood glucose changes after administration,healthy volunteers; 4 hours post any of the 24 administrations,no changes
same,severity of adverse events,healthy volunteers; all events,mild to moderate
same,severity of the hyperglycemia event,healthy volunteers; one individual,mild and transient
same,Blood Glucose after increase,"healthy volunteers; one individual, increased from 97",105 mg/dL
same,"anxiety, number",healthy volunteers; [9],1
same,"anxiety, percent",healthy volunteers; [9],4.34%
same,"chemistry AEs, number",healthy volunteers; [9],8
same,"chemistry AEs, percent",healthy volunteers; [9],34.8%
same,"fatigue reports, number",healthy volunteers; [9],2
same,"fatigue reports, percent",healthy volunteers; [9],8.7%
same,"hematology AEs, number",healthy volunteers; [9],6
same,"hematology AEs, percent",healthy volunteers; [9],26.1%
same,"hypertension, number",healthy volunteers; [9],1
same,"hypertension, percent",healthy volunteers; [9],4.34%
same,"insomnia, number",healthy volunteers; [9],2
same,"insomnia, percent",healthy volunteers; [9],8.7%
same,"noncardiac chest pain, number",healthy volunteers; [9],1
same,"noncardiac chest pain, percent",healthy volunteers; [9],4.34%
same,"skin rash, number",healthy volunteers; [9],2
same,"skin rash, percent",healthy volunteers; [9],8.7%
